Calls of active or inactive are those of the source. The calls are words filed in the database; no cut-off is given here.
Legend:
[1] = Anti-urolithic activity in synthetic urine assessed as decrease in absorbance at 10 mg/mL relative to control; assay type: functional; set-up: scale not given: the % may be the effect or the level left
[2] = Anti-urolithic activity in synthetic urine assessed as decrease in absorbance at 10 mg/mL after 30 mins relative to control; assay type: functional; set-up: scale not given: the % may be the effect or the level left
[3] = Anti-urolithic activity in synthetic urine assessed as reduction in CaOx crystal formation at 10 mg/mL in presence of sodium oxalate after 60 mins by Neubauer counting chamber method relative to control; assay type: functional; set-up: scale not given: the % may be the effect or the level left
[4] = Anti-urolithic activity in synthetic urine assessed as decrease in absorbance at 10 mg/mL after 60 mins relative to control; assay type: functional; set-up: scale not given: the % may be the effect or the level left
Rattus norvegicus [5] = assay: Diuretic activity in normotensive Wistar rat assessed as increase in urine volume excretion at 0.1 to 1 mg/kg, po administered via gavage measured up to 8 hrs; assay type: functional, organism-based
Rattus norvegicus [6] = assay: Diuretic activity in normotensive Wistar rat assessed as modification of urinary potassium excretion at 0.1 to 1 mg/kg, po administered via gavage measured up to 8 hrs; assay type: ADME, organism-based; settings: in vivo
Rattus norvegicus [7] = assay: Diuretic activity in normotensive Wistar rat assessed as modification of urinary sodium excretion at 0.1 to 1 mg/kg, po administered via gavage measured up to 8 hrs; assay type: functional, organism-based
Rattus norvegicus [8] = assay: Diuretic activity in normotensive Wistar rat assessed as modification of urinary chloride excretion at 0.1 to 1 mg/kg, po administered via gavage measured up to 8 hrs; assay type: functional, organism-based
Rattus norvegicus [9] = assay: Diuretic activity in normotensive Wistar rat assessed as increase in urine volume excretion at 0.1 to 1 mg/kg, ip measured up to 8 hrs; assay type: functional, organism-based
Rattus norvegicus [10] = assay: Diuretic activity in normotensive Wistar rat assessed as modification of urinary calcium excretion at 0.1 to 1 mg/kg, po administered via gavage measured up to 8 hrs; assay type: functional, organism-based
Rattus norvegicus [11] = assay: Renal protective activity in spontaneous hypertensive Wistar rat assessed as reduction in hypertension-induced Bowman's capsule thickening at 10 mg/kg, po administered via gavage for 7 days by hematoxylin and eosin staining based microscopic analysis; assay type: functional, organism-based
Rattus norvegicus [12] = assay: Diuretic activity in normotensive Wistar rat assessed as increase in urinary potassium excretion at 10 mg/kg, po administered via gavage for 7 days; assay type: ADME, organism-based; settings: in vivo, 168 h
Rattus norvegicus [13] = assay: Diuretic activity in normotensive Wistar rat assessed as urine conductivity at 10 mg/kg, po administered via gavage after 8 hrs (reference value: 19.54 +/- 0.98 mS/cm); assay type: functional
Rattus norvegicus [14] = assay: Renal protective activity in spontaneous hypertensive Wistar rat assessed as reduction in hypertension-induced glomerular size at 10 mg/kg, po administered via gavage for 7 days by hematoxylin and eosin staining based microscopic analysis; assay type: functional, organism-based
Rattus norvegicus [15] = assay: Diuretic activity in spontaneous hypertensive Wistar rat assessed as decrease in urinary calcium excretion at 10 mg/kg, po administered via gavage for 7 days; assay type: functional, organism-based
Rattus norvegicus [16] = assay: Renal protective activity in spontaneous hypertensive Wistar rat assessed as reduction in hypertension-induced mesangial space disarrangement at 10 mg/kg, po administered via gavage for 7 days by hematoxylin and eosin staining based microscopic analysis; assay type: functional, organism-based
Rattus norvegicus [17] = assay: Diuretic activity in spontaneous hypertensive Wistar rat assessed as increase in urinary potassium excretion at 10 mg/kg, po administered via gavage for 7 days; assay type: ADME, organism-based; settings: in vivo, 168 h
Rattus norvegicus [18] = assay: In vivo antioxidant activity in Wistar rat model of hypertension-induced oxidative stress assessed as reduction in reactive oxygen species generation in renal tissue at 10 mg/kg, po administered via gavage for 7 days by DCFH-DA probe based fluorimetric assay; assay type: functional, organism-based
Rattus norvegicus [19] = assay: Diuretic activity in normotensive Wistar rat assessed as increase in urinary chloride excretion at 10 mg/kg, po administered via gavage for 7 days; assay type: functional, organism-based
Rattus norvegicus [20] = assay: Anti-urolithic activity in normotensive Wistar rats assessed as reduction in CaOx crystal formation in cumulative urine at 10 mg/kg, po administered via gavage in presence of sodium oxalate by Neubauer counting chamber method relative to control; assay type: functional; set-up: scale not given: the % may be the effect or the level left
Rattus norvegicus [21] = assay: Diuretic activity in normotensive Wistar rat assessed as urinary potassium excretion at 10 mg/kg, po administered via gavage after 8 hrs (reference value: 22.39 to 24.21 mmol/L); assay type: ADME, organism-based; settings: in vivo
Rattus norvegicus [22] = assay: Diuretic activity in normotensive Wistar rat assessed as urinary calcium excretion at 10 mg/kg, po administered via gavage after 8 hrs (reference value: 5.93 to 6.87 mg/dl); assay type: functional
Rattus norvegicus [23] = assay: Diuretic activity in spontaneous hypertensive Wistar rat assessed as increase in urinary chloride excretion at 10 mg/kg, po administered via gavage for 7 days; assay type: functional, organism-based
Rattus norvegicus [24] = assay: Diuretic activity in normotensive Wistar rat assessed as decrease in urinary calcium excretion at 10 mg/kg, po administered via gavage for 7 days; assay type: functional, organism-based
Rattus norvegicus [25] = assay: Diuretic activity in spontaneous hypertensive Wistar rat assessed as increase in urinary sodium excretion at 10 mg/kg, po administered via gavage for 7 days; assay type: functional, organism-based
Rattus norvegicus [26] = assay: Diuretic activity in normotensive Wistar rat assessed as urinary sodium excretion at 10 mg/kg, po administered via gavage after 8 hrs (reference value: 61.82 to 80.81 mmol/L); assay type: functional
Rattus norvegicus [27] = assay: Anti-urolithic activity in spontaneous hypertensive Wistar rats assessed as reduction in CaOx crystal formation in cumulative urine at 10 mg/kg, po administered via gavage in presence of sodium oxalate by Neubauer counting chamber method relative to control; assay type: functional; set-up: scale not given: the % may be the effect or the level left
Rattus norvegicus [28] = assay: Diuretic activity in normotensive Wistar rat assessed as urinary chloride excretion at 10 mg/kg, po administered via gavage after 8 hrs (reference value: 135.10 to 143.70 mmol/L); assay type: functional
Rattus norvegicus [29] = assay: Diuretic activity in spontaneous hypertensive Wistar rat assessed as increase in urine volume at 10 mg/kg, po administered via gavage for 7 days; assay type: functional, organism-based
Rattus norvegicus [30] = assay: Diuretic activity in normotensive Wistar rat assessed as increase in urine volume at 10 mg/kg, po administered via gavage for 7 days; assay type: functional, organism-based
Rattus norvegicus [31] = assay: Diuretic activity in normotensive Wistar rat assessed as increase in urinary sodium excretion at 10 mg/kg, po administered via gavage for 7 days; assay type: functional, organism-based
Rattus norvegicus [32] = assay: In vivo antioxidant activity in Wistar rat model of hypertension-induced oxidative stress assessed as reduction in nitrite level in renal tissue at 10 mg/kg, po administered via gavage for 7 days by Griess reagent based assay; assay type: functional, organism-based
Rattus norvegicus [33] = assay: Diuretic activity in normotensive Wistar rat assessed as urinary chloride excretion at 3 mg/kg, po administered via gavage after 8 hrs (reference value: 135.10 to 143.70 mmol/L); assay type: functional
Rattus norvegicus [34] = assay: Diuretic activity in normotensive Wistar rat assessed as urinary calcium excretion at 3 mg/kg, po administered via gavage after 8 hrs (reference value: 5.93 to 6.87 mg/dl); assay type: functional
Rattus norvegicus [35] = assay: Diuretic activity in normotensive Wistar rat assessed as urine pH at 3 mg/kg, po administered via gavage after 8 hrs (reference value: 6.14 to 6.21); assay type: functional
Rattus norvegicus [36] = assay: Diuretic activity in normotensive Wistar rat assessed as urine conductivity at 3 mg/kg, po administered via gavage after 8 hrs (reference value: 19.54 +/- 0.98 mS/cm); assay type: functional
Rattus norvegicus [37] = assay: Diuretic activity in normotensive Wistar rat assessed as urinary sodium excretion at 3 mg/kg, po administered via gavage after 8 hrs (reference value: 61.82 to 80.81 mmol/L); assay type: functional
Rattus norvegicus [38] = assay: Diuretic activity in normotensive Wistar rat assessed as urine pH at 20 mg/kg, po administered via gavage after 8 hrs (reference value: 6.14 to 6.21); assay type: functional

`O=C([O-])CC(O)(CC(=O)[O-])C(=O)[O-].[K+].[K+].[K+]` [POTASSIUM CITRATE ANHYDROUS] showed an Activity [1] of 81.73%, an Activity [2] of 70.41% and an Activity [3] of 65.02%. For the same compound, the Activity [4] was 64.85%.

With `O=c1c(O)c(-c2ccc(O)cc2)oc2cc(O)cc(O)c12` [KAEMPFEROL] the Activity (Rattus norvegicus [5]) was “inactive”, the Activity (Rattus norvegicus [6]) was “Non-Toxic” and the Activity (Rattus norvegicus [7]) was “inactive”. The Activity (Rattus norvegicus [8]) was “inactive”, the Activity (Rattus norvegicus [9]) was “inactive” and the Activity (Rattus norvegicus [10]) was “inactive”.

In the case of `NS(=O)(=O)c1cc2c(cc1Cl)NCNS2(=O)=O` [HYDROCHLOROTHIAZIDE], the Activity (Rattus norvegicus [11]) is reported as “Active”, the Activity (Rattus norvegicus [12]) is reported as “Toxic” and the Activity (Rattus norvegicus [13]) is reported as 23.62 - 27.3 mS/cm. For the same compound, the Activity (Rattus norvegicus [14]) was “Active”, the Activity (Rattus norvegicus [15]) was “Active” and the Activity (Rattus norvegicus [16]) was “Active”. The Activity (Rattus norvegicus [17]) was “Toxic”, the Activity (Rattus norvegicus [18]) was “Active” and the Activity (Rattus norvegicus [19]) was “Active”. It also gave an Activity (Rattus norvegicus [20]) of 89.04%, an Activity (Rattus norvegicus [21]) of 41 to 44.8 mmol/L and an Activity (Rattus norvegicus [22]) of 4.78 to 5.24 mg/dL. The Activity (Rattus norvegicus [23]) was “Active”, the Activity (Rattus norvegicus [24]) was “Active” and the Activity (Rattus norvegicus [25]) was “Active”. The Activity (Rattus norvegicus [26]) was 175.7 to 185.7 mmol/L, the Activity (Rattus norvegicus [27]) was 92.9% and the Activity (Rattus norvegicus [28]) was 279.8 to 286.6 mmol/L. For the same compound, the Activity (Rattus norvegicus [29]) was “Active”, the Activity (Rattus norvegicus [30]) was “Active” and the Activity (Rattus norvegicus [31]) was “Active”. For the same compound, the Activity (Rattus norvegicus [32]) was “Active”.

Compound `N=C(N)NC(=O)c1nc(Cl)c(N)nc1N` [AMILORIDE] has an Activity (Rattus norvegicus [33]) of 170.5 mmol/L, an Activity (Rattus norvegicus [34]) of 5.7 mg/dL and a pH (Rattus norvegicus [35]) of 6.29. It also gave an Activity (Rattus norvegicus [36]) of 18.23 mS/cm and an Activity (Rattus norvegicus [37]) of 117.2 mmol/L.

Work on `NS(=O)(=O)c1cc(C(=O)O)c(NCc2ccco2)cc1Cl` [FUROSEMIDE] yielded a pH (Rattus norvegicus [38]) of 6.12.
